According to patent publication US10034879B2, “Substituted benzaldehyde compounds and methods for their use in increasing tissue oxygenation” (Global Blood Therapeutics, Inc., priority 2011, dated 2018):
“And” between values parts separate entries of the source, which are not always exact repeats. Identical values can stand only once. Like-named read-outs stand apart in the source and are kept apart here.

Columns and labels:
HbS = target: T1, HbS (Homo sapiens, UniProt P68871+P69905, E7V); assay: Whole blood assay, oxygen equilibrium curves of whole blood from sickle cell patients; type: cell-based; settings: hematocrit 20%, compound at 1000 μM
T1 construct: Oxygen Equilibrium Curves (OEC) of whole blood before and after treatment; endogenous in cells; host or cells: whole blood (red blood cells) of homozygous sickle cell patients
Experimental: Oxygen Equilibrium Curves (OEC) of whole blood before and after treatment with different concentrations of substituted benzaldehyde compounds were performed as follows using a HEMOX analyzer (TCS Scientific, New Hope, Pa.). Blood samples from homozygous sickle cell patients were obtained though the Hemoglobinopathy Center at Children's Hospital Oakland Research Institute (CHORI) with Institutional Review Board approval. The hematocrit was adjusted to 20% using autologous plasma and the blood samples were incubated for 1 hour at 37° C. in absence or presence of compounds. 100 μl of these samples were added to 5 mL of Hemox buffer (30 mM TES, 130 mM NaCl, 5 mM KCl, pH=7.4) at 37° C. and then transferred to the Hemox sample chamber. The samples were saturated with oxygen by flushing with compressed air for 10 minutes. The samples were then flushed with pure nitrogen and the respective absorbances of oxy- and deoxy-Hb are recorded as a function of the solution pO2. The oxygen equilibrium data were then fitted to the Hill Model to obtain values for p50. The deoxygenation curves for both whole blood alone (control) and whole blood in the presence of the compound were collected with the TCS software.
Table 5 below lists the delta p50% values where + indicates a delta p50% of between 0 and 29, ++ indicates a delta p50% of between 30 and 50, and +++ indicates a delta p50% of 50 or greater. The compounds in Table 2 were tested at 1000 μM.

[1] = Pharmacokinetic I.V. study in rat; type: in vivo, Sprague Dawley rats; settings: 7.8 mpk IV; for Vd: read-out: Vss; for half-life: read-out: t½ beta
Experimental: (§1) Sprague Dawley rats were treated with 7.8 mg/Kg of Compound 43 dissolved in 10% DMA:[…]:16% ca vitron. At specified time points 10 uL of whole blood/plasma was removed from rats and treated with 490 ul pH 3 buffer+500 uL ACN/IS, then shaken for 1 hour, centrifuged for 10 minutes at […] at 4 C. The supernatant was transferred to a filter plate and centrifuged at 2000 rpm for 1 minute at 4 C. The samples were then analyzed by LC-MS/MS monitoring parent aldehyde.

[2] = Pharmacokinetic oral study in rat; type: in vivo, SD Rats; settings: for AUClast ratio / Cmax ratio: PO, 100 mg/kg vs 44 mg/kg; for Cmax / Tmax: Sprague-Dawley
Experimental: as §1
SD Rats were treated by gavage with 44 mg/kg and 100 mg/kg dissolved in 10% DMA:90% PEG. At specified time points blood was taken and worked up as described above in the IV Study.

purified HBS = target: T2, purified HBS (Homo sapiens, UniProt P68871+P69905, E7V); assay: HbS polymerization assay (delay time); type: biochemical; settings: 50 μM purified HBS, 1.8 M potassium phosphate pH 7.4
T2 construct: HbS is purified by the CRO VIRUSYS, from blood obtained from homozygous sickle cell patients; tissue VIRUSYS (CRO that did the purification); host or cells: blood of homozygous sickle cell patients
Experimental: Polymerization assays are carried out in vitro using purified HBS exchanged into 1.8 M potassium phosphate buffer at pH 7.4. Using a slightly modified protocol (Antonini and Brunori, 1971), HbS is purified by the CRO VIRUSYS, from blood obtained from homozygous sickle cell patients through the Hemoglobinopathy Center at Children's Hospital Oakland Research Institute (CHORI) with Institutional Review Board approval. Compounds are prepared in 100% DMSO and a desired amount is added to 50 μM of purified HBS at a final DMSO concentration of 0.3%. Final potassium phosphate concentration is adjusted to 1.8 M using a combination of 2.5 M potassium phosphate stock solution and water at pH 7.4. The reaction mixture is incubated for an hour at 37° C. and then transferred into a 24-well plate for deoxygenation in a glove box containing 99.5% nitrogen and 0.5% oxygen. The 24-well plate is not covered and incubated at 4° C. on a plate cooler inside the glove box for one and a half hours. Fifty μL of the reaction mixture is transferred into a 96-well plate and the absorbance at 700 nm is measured every minute for one hour at 37° C. in a plate reader located inside the glove box. A plot of the absorbance against time is fitted using a Boltzman sigmoidal fit and the delay time (from zero to time at half Vmax) is measured. To compare and rank compounds, delay times are expressed as percent delay (% DT), which is defined as the difference in delay times for HBS/compound and HBS alone multiplied by 100 and divided by the delay time for HBS alone.
Compounds listed below have been tested in the polymerization assay. Activity ranges are defined by the number of dagger (†) symbols indicated. † denotes activity ≤40% but ≤80%; †† denotes activity >80% but ≤120%; ††† denotes activity >120% but ≤140%; †††† denotes activity >160%.

[3] = HCl salt, 0 min, animals A, B, C
[4] = HCl salt, 5 min, animals A, B, C, 7.8 mg/kg
[5] = HCl salt, 15 min, animals A, B, C, 7.8 mg/kg
[6] = HCl salt, 30 min, animals A, B, C, 7.8 mg/kg
[7] = HCl salt, 60 min, animals A, B, C, 7.8 mg/kg
[8] = HCl salt, 120 min, animals A, B, C, 7.8 mg/kg
[9] = HCl salt, 240 min, animals A, B, C, 7.8 mg/kg
[10] = HCl salt, 1440 min, animals A, B, C, 7.8 mg/kg
[11] = Sprague-Dawley, 7.8 mg/kg, Plasma
[12] = Sprague-Dawley, whole blood, 7.8 mg/kg, Blood
[13] = whole blood, PO 44 mg/kg, Blood
[14] = whole blood, PO 100 mg/kg, Blood

For CC(C)n1nccc1-c1ncccc1COc1cccc(O)c1C=O [Compound 43, 2-hydroxy-6-((2-(1-isopropyl-1H-pyrazol-5-yl)pyridin-3-yl)methoxy)benzaldehyde], the “delta p50%” value (HbS) was “+++ (+++ indicates a delta p50% of 50 or greater)”, the AUClast ([1]; Blood) was 215846.3 µmol·min/L and the blood conc [1, 3] was “BLLOQ”. For the same molecule, the plasma conc [1, 3] was “BLLOQ”, the blood conc [1, 4] was 246 µM and 281 µM and the plasma conc [1, 4] was 8.68 µM and 7.44 µM. For the same molecule, the blood conc [1, 5] was 341 µM and 285 µM, the plasma conc [1, 5] was 8.42 µM and 7.16 µM and the blood conc [1, 6] was 333 µM and 292 µM. For the same molecule, the plasma conc [1, 6] was 7.1 µM, the blood conc [1, 7] was 203 µM and 285 µM and the plasma conc [1, 7] was 7.52 µM and 7.22 µM. The blood conc [1, 8] was 274 µM and 280 µM, the plasma conc [1, 8] was 6.02 µM and 5.22 µM and the blood conc [1, 9] was 225 µM and 259 µM. For the same molecule, the plasma conc [1, 9] was 5.24 µM and 5.88 µM, the plasma conc ([1]; HCl salt, 480 min, animals A, B, C, 7.8 mg/kg) was 2.66 µM and 3.15 µM and the blood conc [1, 10] was 85 µM and 70.8 µM. The plasma conc [1, 10] was 1.38 µM and 1.51 µM, the AUClast ([1]; Plasma) was 4114.8 µmol·min/L and the clearance [1, 11] was 4.45 mL/min/kg. The Vd [1, 11] was 4.11 L/kg, the half-life [1, 11] was 10.3 h and the concentration at 5 min ([1]; Sprague-Dawley, plasma, iv, 7.8 mg/kg, HCl salt, 5 min, animals A, B, C, read-out: plasma conc) was 7.56 µM. The concentration at 15 min ([1]; Sprague-Dawley, plasma, iv, 7.8 mg/kg, HCl salt, 15 min, animals A, B, C, read-out: plasma conc) was 8.38 µM, the concentration at 30 min ([1]; Sprague-Dawley, plasma, iv, 7.8 mg/kg, HCl salt, 30 min, animals A, B, C, read-out: plasma conc) was 8.66 µM and the concentration at 60 min ([1]; Sprague-Dawley, plasma, iv, 7.8 mg/kg, HCl salt, 60 min, animals A, B, C, read-out: plasma conc) was 6.12 µM. It also gave a concentration at 120 min ([1]; Sprague-Dawley, plasma, iv, 7.8 mg/kg, HCl salt, 120 min, animals A, B, C, read-out: plasma conc) of 3.92 µM, a concentration at 240 min ([1]; Sprague-Dawley, plasma, iv, 7.8 mg/kg, HCl salt, 240 min, animals A, B, C, read-out: plasma conc) of 3.72 µM and a concentration at 480 min ([1]; Sprague-Dawley, plasma, iv, 7.8 mg/kg, HCl salt, 480 min, animals A, B, C, read-out: plasma conc) of 2.06 µM. It also gave a concentration at 1440 min ([1]; Sprague-Dawley, plasma, iv, 7.8 mg/kg, HCl salt, 1440 min, animals A, B, C, read-out: plasma conc) of 1.07 µM, a clearance [1, 12] of 0.08 mL/min/kg and a Vd [1, 12] of 0.09 L/kg. It also gave a half-life [1, 12] of 12.5 h, a concentration at 5 min ([1]; Sprague-Dawley, whole blood, iv, 7.8 mg/kg, HCl salt, 5 min, animals A, B, C, read-out: blood conc) of 259 µM and a concentration at 15 min ([1]; Sprague-Dawley, whole blood, iv, 7.8 mg/kg, HCl salt, 15 min, animals A, B, C, read-out: blood conc) of 287 µM. It also gave a concentration at 30 min ([1]; Sprague-Dawley, whole blood, iv, 7.8 mg/kg, HCl salt, 30 min, animals A, B, C, read-out: blood conc) of 283 µM, a concentration at 60 min ([1]; Sprague-Dawley, whole blood, iv, 7.8 mg/kg, HCl salt, 60 min, animals A, B, C, read-out: blood conc) of 256 µM and a concentration at 120 min ([1]; Sprague-Dawley, whole blood, iv, 7.8 mg/kg, HCl salt, 120 min, animals A, B, C, read-out: blood conc) of 263 µM. It also gave a concentration at 240 min ([1]; Sprague-Dawley, whole blood, iv, 7.8 mg/kg, HCl salt, 240 min, animals A, B, C, read-out: blood conc) of 248 µM, a concentration at 1440 min ([1]; Sprague-Dawley, whole blood, iv, 7.8 mg/kg, HCl salt, 1440 min, animals A, B, C, read-out: blood conc) of 81.1 µM and an AUClast ([2]; PO 44 mg/kg, Blood) of 395638.27 µmol·min/L. For the same molecule, the AUClast ([2]; PO 44 mg/kg, Plasma) was 12517.54 µmol·min/L, the AUClast ([2]; PO 100 mg/kg, Blood) was 1384101.11 µmol·min/L and the AUClast ([2]; PO 100 mg/kg, Plasma) was 52836.17 µmol·min/L. The AUClast ratio ([2]; Blood) was 3.50, the Cmax ratio ([2]; Blood) was 2.88 and the AUClast ratio ([2]; Plasma) was 4.22. For the same molecule, the Cmax ratio ([2]; Plasma) was 3.01, the Cmax ([2]; PO 44 mg/kg, Plasma) was 14.8 µM and the Tmax ([2]; PO 44 mg/kg, Plasma) was 3.33 h. It also gave a Cmax ([2]; PO 100 mg/kg, Plasma) of 44.5 µM, a Tmax ([2]; PO 100 mg/kg, Plasma) of 11.3 h and a Cmax [2, 13] of 381 µM. The Tmax [2, 13] was 5.33 h, the Cmax [2, 14] was 1100 µM and the Tmax [2, 14] was 12 h. For the same molecule, the “% delta Delay” value (purified HBS) was “†† (†† denotes activity >80% but ≤120%)”.
